Test results as given in ChEMBL document CHEMBL1201862, “PubChem BioAssay data set” (2004).
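A five-concentration, 48-hour dose response in 96-well plates underlies each endpoint, interpolated linearly between surrounding concentrations. GI50: concentration for 50% inhibition of growth.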 Calls of active or inactive are those of the source. No stated cut-off is given here; in the data, active = GI50 up to about 1.1 µM and inactive = higher.

Assays:
Test in all cases: growth of human tumour cells (NCI), 48 h
NCI-H226 = tested on: NCI-H226
KM12 = tested on: KM12
OVCAR-4 = tested on: OVCAR-4
TK-10 = tested on: TK-10
A498 = tested on: A498
HOP-92 = tested on: HOP-92
M14 = tested on: M14
MDA-N = tested on: MDA-N
A549 = tested on: A549
CAKI-1 = tested on: CAKI-1
NCI-H460 = tested on: NCI-H460
CCRF-CEM = tested on: CCRF-CEM
MOLT-4 = tested on: MOLT-4
SF-295 = tested on: SF-295
PC-3 = tested on: PC-3
SF-539 = tested on: SF-539
T47D = tested on: T47D
SF-268 = tested on: SF-268
MDA-MB-435 = tested on: MDA-MB-435
MCF7 = tested on: MCF7
SK-OV-3 = tested on: SK-OV-3
U-251 = tested on: U-251
SNB-75 = tested on: SNB-75
Malme-3M = tested on: Malme-3M
NCI/ADR-RES = tested on: NCI/ADR-RES
HL-60 = tested on: HL-60
NCI-H522 = tested on: NCI-H522
ACHN = tested on: ACHN
BT-549 = tested on: BT-549
786-0 = tested on: 786-0
UACC-62 = tested on: UACC-62
NCI-H23 = tested on: NCI-H23
UACC-257 = tested on: UACC-257
HCT-116 = tested on: HCT-116
SN12C = tested on: SN12C
SR = tested on: SR
COLO 205 = tested on: COLO 205
DU-145 = tested on: DU-145
RXF 393 = tested on: RXF 393
OVCAR-3 = tested on: OVCAR-3
OVCAR-5 = tested on: OVCAR-5
EKVX = tested on: EKVX
HT-29 = tested on: HT-29
SK-MEL-28 = tested on: SK-MEL-28
UO-31 = tested on: UO-31
SK-MEL-2 = tested on: SK-MEL-2
HCT-15 = tested on: HCT-15
SNB-19 = tested on: SNB-19
HOP-62 = tested on: HOP-62
SK-MEL-5 = tested on: SK-MEL-5
Hs-578T = tested on: Hs-578T
SW-620 = tested on: SW-620
HCC 2998 = tested on: HCC 2998
IGROV-1 = tested on: IGROV-1
LOX IMVI = tested on: LOX IMVI
K562 = tested on: K562
OVCAR-8 = tested on: OVCAR-8
RPMI-8226 = tested on: RPMI-8226
MDA-MB-231 = tested on: MDA-MB-231

Structure (SMILES): CCCCc1c(N(C)C)c(OC(C)=O)c(-c2cn(C)c3ccccc23)oc1=O
- GI50 (NCI-H226): 8.71 µM (inactive)
- GI50 (KM12): 14.2 µM (inactive)
- GI50 (OVCAR-4): 33.7 µM (inactive)
- GI50 (TK-10): 40 µM (inactive)
- GI50 (A498): 28.8 µM (inactive)
- GI50 (HOP-92): < 0.01 µM (active)
- GI50 (M14): 16.8 µM (inactive)
- GI50 (MDA-N): 18.1 µM (inactive)
- GI50 (A549): 24.3 µM (inactive)
- GI50 (CAKI-1): 30.7 µM (inactive)
- GI50 (NCI-H460): 27 µM (inactive)
- GI50 (CCRF-CEM): 33.4 µM (inactive)
- GI50 (MOLT-4): 47.9 µM (inactive)
- GI50 (SF-295): 25.5 µM (inactive)
- GI50 (PC-3): 18.6 µM (inactive)
- GI50 (SF-539): 22.3 µM (inactive)
- GI50 (T47D): 29.6 µM (inactive)
- GI50 (SF-268): 29.3 µM (inactive)
- GI50 (MDA-MB-435): 19.1 µM (inactive)
- GI50 (MCF7): 13.1 µM (inactive)
- GI50 (SK-OV-3): 32.4 µM (inactive)
- GI50 (U-251): 22 µM (inactive)
- GI50 (SNB-75): 25.1 µM (inactive)
- GI50 (Malme-3M): 24.8 µM (inactive)
- GI50 (NCI/ADR-RES): 20.3 µM (inactive)
- GI50 (HL-60): 17.7 µM (inactive)
- GI50 (NCI-H522): 20.9 µM (inactive)
- GI50 (ACHN): 17.9 µM (inactive)
- GI50 (BT-549): 28.3 µM (inactive)
- GI50 (786-0): 34.8 µM (inactive)
- GI50 (UACC-62): 14.1 µM (inactive)
- GI50 (NCI-H23): 22.5 µM (inactive)
- GI50 (UACC-257): 22.5 µM (inactive)
- GI50 (HCT-116): 17.3 µM (inactive)
- GI50 (SN12C): 24.5 µM (inactive)
- GI50 (SR): > 100 µM (inactive)
- GI50 (COLO 205): 19.1 µM (inactive)
- GI50 (DU-145): 54.6 µM (inactive)
- GI50 (RXF 393): 41 µM (inactive)
- GI50 (OVCAR-3): 25.9 µM (inactive)
- GI50 (OVCAR-5): 31.6 µM (inactive)
- GI50 (EKVX): 26.1 µM (inactive)
- GI50 (HT-29): 15.5 µM (inactive)
- GI50 (SK-MEL-28): 21.7 µM (inactive)
- GI50 (UO-31): 20.8 µM (inactive)
- GI50 (SK-MEL-2): 18.7 µM (inactive)
- GI50 (HCT-15): 19.4 µM
- GI50 (SNB-19): 28.7 µM (inactive)
- GI50 (HOP-62): 19.8 µM (inactive)
- GI50 (SK-MEL-5): 13.8 µM (inactive)
- GI50 (Hs-578T): 43 µM (inactive)
- GI50 (SW-620): 23.6 µM (inactive)

Structure (SMILES): CCCn1c(=O)c2nn3c(=O)n(CCC)c(=O)c3nn2c1=O
- GI50 (NCI-H226): > 100 µM (inactive)
- GI50 (KM12): > 100 µM (inactive)
- GI50 (OVCAR-4): > 100 µM (inactive)
- GI50 (TK-10): > 100 µM (inactive)
- GI50 (HOP-92): > 100 µM (inactive)
- GI50 (M14): > 100 µM (inactive)
- GI50 (MDA-N): > 100 µM (inactive)
- GI50 (A549): > 100 µM (inactive)
- GI50 (CAKI-1): > 100 µM (inactive)
- GI50 (NCI-H460): > 100 µM (inactive)
- GI50 (CCRF-CEM): > 100 µM (inactive)
- GI50 (MOLT-4): > 100 µM (inactive)
- GI50 (SF-295): > 100 µM (inactive)
- GI50 (PC-3): > 100 µM (inactive)
- GI50 (SF-539): > 100 µM (inactive)
- GI50 (T47D): > 100 µM (inactive)
- GI50 (SF-268): > 100 µM (inactive)
- GI50 (MDA-MB-435): > 100 µM (inactive)
- GI50 (MCF7): > 100 µM (inactive)
- GI50 (SK-OV-3): > 100 µM (inactive)
- GI50 (U-251): > 100 µM (inactive)
- GI50 (SNB-75): > 100 µM (inactive)
- GI50 (Malme-3M): > 100 µM (inactive)
- GI50 (NCI/ADR-RES): > 100 µM (inactive)
- GI50 (HL-60): > 100 µM (inactive)
- GI50 (NCI-H522): > 100 µM (inactive)
- GI50 (ACHN): > 100 µM (inactive)
- GI50 (BT-549): > 100 µM (inactive)
- GI50 (786-0): > 100 µM (inactive)
- GI50 (UACC-62): > 100 µM (inactive)
- GI50 (NCI-H23): > 100 µM (inactive)
- GI50 (UACC-257): > 100 µM (inactive)
- GI50 (HCT-116): > 100 µM (inactive)
- GI50 (HCC 2998): > 100 µM (inactive)
- GI50 (IGROV-1): > 100 µM (inactive)
- GI50 (SN12C): > 100 µM (inactive)
- GI50 (SR): > 100 µM (inactive)
- GI50 (COLO 205): > 100 µM (inactive)
- GI50 (DU-145): > 100 µM (inactive)
- GI50 (LOX IMVI): > 100 µM (inactive)
- GI50 (K562): > 100 µM (inactive)
- GI50 (RXF 393): > 100 µM (inactive)
- GI50 (OVCAR-3): > 100 µM (inactive)
- GI50 (OVCAR-5): > 100 µM (inactive)
- GI50 (EKVX): > 100 µM (inactive)
- GI50 (HT-29): > 100 µM (inactive)
- GI50 (SK-MEL-28): > 100 µM (inactive)
- GI50 (UO-31): > 100 µM (inactive)
- GI50 (SK-MEL-2): > 100 µM (inactive)
- GI50 (HCT-15): > 100 µM
- GI50 (OVCAR-8): > 100 µM (inactive)
- GI50 (SNB-19): > 100 µM (inactive)
- GI50 (HOP-62): > 100 µM (inactive)
- GI50 (SK-MEL-5): > 100 µM (inactive)
- GI50 (Hs-578T): > 100 µM (inactive)
- GI50 (RPMI-8226): > 100 µM (inactive)
- GI50 (SW-620): > 100 µM (inactive)

Structure (SMILES): CC1=NNC(=O)C1C1CC(c2c[nH]c3ccccc23)=NN(c2ccccc2)C1=O (centres undefined)
- GI50 (NCI-H226): > 100 µM (inactive)
- GI50 (KM12): > 100 µM (inactive)
- GI50 (MDA-MB-231): > 100 µM (inactive)
- GI50 (TK-10): > 100 µM (inactive)
- GI50 (A498): > 100 µM (inactive)
- GI50 (HOP-92): > 100 µM (inactive)
- GI50 (M14): 66.4 µM (inactive)
- GI50 (MDA-N): 59.2 µM (inactive)
- GI50 (A549): > 100 µM (inactive)
- GI50 (CAKI-1): > 100 µM (inactive)
- GI50 (NCI-H460): > 100 µM (inactive)
- GI50 (CCRF-CEM): 28.1 µM (inactive)
- GI50 (MOLT-4): 34 µM (inactive)
- GI50 (SF-295): > 100 µM (inactive)
- GI50 (PC-3): > 100 µM (inactive)
- GI50 (SF-539): 87.3 µM (inactive)
- GI50 (T47D): > 100 µM (inactive)
- GI50 (SF-268): > 100 µM (inactive)
- GI50 (MDA-MB-435): 55.1 µM (inactive)
- GI50 (SK-OV-3): > 100 µM (inactive)
- GI50 (U-251): 87.5 µM (inactive)
- GI50 (SNB-75): > 100 µM (inactive)
- GI50 (Malme-3M): > 100 µM (inactive)
- GI50 (NCI/ADR-RES): 83.9 µM (inactive)
- GI50 (HL-60): 34.7 µM (inactive)
- GI50 (NCI-H522): 19.8 µM (inactive)
- GI50 (ACHN): > 100 µM (inactive)
- GI50 (BT-549): 86.1 µM (inactive)
- GI50 (786-0): 24.6 µM (inactive)
- GI50 (UACC-62): > 100 µM (inactive)
- GI50 (NCI-H23): > 100 µM (inactive)
- GI50 (UACC-257): > 100 µM (inactive)
- GI50 (HCT-116): 34.7 µM (inactive)
- GI50 (IGROV-1): 1.62 µM (inactive)
- GI50 (SN12C): 50.5 µM (inactive)
- GI50 (COLO 205): > 100 µM (inactive)
- GI50 (DU-145): > 100 µM (inactive)
- GI50 (LOX IMVI): 27.6 µM (inactive)
- GI50 (K562): 35 µM (inactive)
- GI50 (RXF 393): > 100 µM (inactive)
- GI50 (OVCAR-3): > 100 µM (inactive)
- GI50 (OVCAR-5): > 100 µM (inactive)
- GI50 (EKVX): > 100 µM (inactive)
- GI50 (HT-29): > 100 µM (inactive)
- GI50 (SK-MEL-28): > 100 µM (inactive)
- GI50 (UO-31): > 100 µM (inactive)
- GI50 (SK-MEL-2): > 100 µM (inactive)
- GI50 (HCT-15): 37 µM
- GI50 (OVCAR-8): > 100 µM (inactive)
- GI50 (SNB-19): > 100 µM (inactive)
- GI50 (HOP-62): > 100 µM (inactive)
- GI50 (SK-MEL-5): > 100 µM (inactive)
- GI50 (Hs-578T): 29.8 µM (inactive)
- GI50 (RPMI-8226): 60.3 µM (inactive)
- GI50 (SW-620): 42.3 µM (inactive)
